Assay results taken from patent publication US20220211861A1, “DRUG CONJUGATES AND METHODS OF USING SAME” (The Board of Trustees of the Leland Staford Junior …, priority 2019, published 2022).
Where no end group is shown, it is not given here.

Columns and labels:
U87MG cells [1] = assay: Measurement of cellular internalization of AF488-labeled proteins; type: cell-based; conditions: AF488-labeled protein, 37° C., 4 h, surface signal quenched
Method: The cleavage of the Val-Cit-PAB linker and the subsequent release and mechanism of action of MMAE are dependent upon intracellular delivery. Thus, it was important to validate that each construct internalized efficiently. Internalization was measured by incubating Alexa Fluor 488-conjugated proteins with cells at 37° C. After a 4 h incubation, surface-bound protein was quenched using an anti-AF488 antibody, that binds any exposed fluorophores.
U87MG cells were seeded in 24-well plates (Corning) at a density of 5×10^4 cells per well. After allowing cells to settle for >4 h, media was replaced with fresh media containing 200 nM of Alexa Fluor 488-labeled proteins and supplemented with 1 mM MnCl2. Cells were then incubated at 37° C. for 4 h. Cells were washed with 500 μL of PBS and detached using 20 μL of 0.05% trypsin/EDTA. After neutralizing trypsin and transferring each well into an Eppendorf tube, cells were washed with 800 μL of cold PBSA. Next, cells were pelleted and resuspended on ice in 50 μL of a 1:200 dilution of anti-Alexa Fluor 488 antibody (Invitrogen) to quench surface-bound protein. Cells were washed again with 800 μL of PBSA and the fluorescence of internalized protein was measured by flow cytometry as described above.

U87MG hip xenografts = assay: Therapeutic efficacy study, once weekly for four weeks, tumors implanted with Matrigel; type: in vivo, Nu/Nu mice; conditions: once weekly for 4 weeks
Method: To further investigate each compound, several changes were made to the experimental design. Because of the KDC's rapid systemic clearance, a significant portion of the injected dose is likely lost and the ˜0.6 mg/kg dose was therefore increased substantially. Because dosages for chemotherapeutics are conventionally determined as mass of chemotherapeutic per patient body surface area, a more clinically relevant comparison of equal mass was selected over an equimolar comparison. Next, a once-per-week dosing regimen was selected to coincide with realistic clinical dosing considerations. Finally, tumors were implanted with Matrigel matrix to increase tumor growth and with only 2.5×10^6 cells per injection to decrease initial tumor necrosis. Mice bearing U87MG hip xenografts were equally distributed into the following treatment groups with intravenous injections given once weekly for 4 weeks: KDC, KFDC, KADC, unconjugated proteins, or a PBS control. Each drug conjugate was also evaluated at a low dose and a high dose.
For tumor cell implantation, female Nu/Nu mice (Charles River Laboratory) were anesthetized with 2.5% isoflurane by inhalation with a flow rate of 1 L/min. A volume of 200 μL of 50/50 PBS/Matrigel (Corning), containing 2.5×10^6 U87MG cells, was injected subcutaneously into the right flank. Tumors were allowed to grow for 7 days until reaching a size of approximately 35 mm^2. For therapeutic efficacy studies, mice were binned into experimental groups to ensure equivalent average tumor sizes and starting body weights across all groups.
Mice bearing U87MG flank xenografts, as described above, were injected intravenously with PBS, KDC, KFDC, KADC, or controls proteins. Treatments were administered once per week for four weeks. Tumors were measured three times per week using digital calipers and animal weights were recorded on each dosing day to monitor for potential weight loss as a measure of compound toxicity. Tumor area was calculated as the longest axis of the tumor multiplied by the perpendicular axis. Euthanasia criteria were defined as a tumor area greater than 150 mm^2 or a loss of 20% body weight.

U87MG cells [2] = assay: Direct binding of Alexa Fluor 488-labeled proteins to U87MG cells (flow cytometry); conditions: direct binding of AF488-labeled protein to U87MG cells, 3 h at 4° C.
Method: (§1) The binding affinity of the constructs described in Example 1 were measured using U87MG glioblastoma cells. Drug-free protein affinities were measured directly using Alexa Fluor 488-conjugaed proteins and drug conjugates were measured via a competition binding assay displacing Alexa Fluor 488-labeled K. All constructs tested bound to U87MG cells with low-nanomolar affinity (FIG. 9A-B).
(§2) U87MG cells were detached using Enzyme-Free Cell Dissociation Buffer (Gibco). Next, 4×10^4 cells were incubated with varying concentrations (0.01-200 nM) of Alexa Fluor 488 labeled proteins in Integrin Binding Buffer (IBB; 25 mM Tris pH 7.4, 150 mM NaCl, 2 mM CaCl2), 1 mM MgCl2, 1 mM MnCl2, and 0.1% bovine serum albumin (BSA)) for 3 h at 4° C. to minimize internalization. Cells were pelleted and washed twice with 800 μL of PBSA (phosphate buffered saline containing 0.1% bovine serum albumin) and the fluorescence of remaining surface-bound protein was measured by flow cytometry using a Guava EasyCyte 8HT instrument (EMD Millipore). Resulting data were evaluated using FlowJo software (TreeStar Inc) and equilibrium dissociation constants (Kd) were determined using Prism software (GraphPad). Error bars represent the standard deviation of experiments performed in triplicate.

U87MG cells [3] = assay: Indirect (competition) binding assay displacing Alexa Fluor 488-labeled knottin; conditions: competing off 1 nM AF488-2.5F on U87MG cells
Method: as §1
as §2, with “1 nM” for “varying concentrations (0.01-200 nM)”, “knottin as a competitor and varying concentrations (0.01-500 nM) of KDC, KFDC, or KADC” for “proteins”, “IBB” for “Integrin Binding Buffer (IBB; 25 mM Tris pH 7.4, 150 mM NaCl, 2 mM CaCl2), 1 mM MgCl2, 1 mM MnCl2, and 0.1% bovine serum albumin (BSA))”

[4] = biological target: integrin receptors on U87MG glioblastoma cells; assay: flow cytometry, direct binding of AF488-labelled protein to U87MG cells, 3 h at 4 C

With “KFc: EETI 2.5F genetically fused to a human IgG1 Fc domain (GCPRPRGDNPPLTCSQDSDCLAGCVCGPNGFCG; ends and bridges not checked; also: fused to human IgG1 Fc domain (dimerising))” the internalization (U87MG cells [1]) was “from least to greatest, K, KFc, then KAb”, the “tumor growth with unconjugated protein” value (U87MG hip xenografts) was “indistinguishable from PBS control mice” and the Kd (U87MG cells [2]) was 2.5 nM. For the same molecule, the Ki (U87MG cells [3]) was 1.2 nM.

“knottin-Fc fusion (KFc): EETI 2.5F genetically fused to a human IgG1 Fc domain, Alexa Fluor 488-labeled” was tested, and the Kd [4] was 2.5 nM.

B1: knottin-Ab fusion (KAb): EETI 2.5F genetically fused to the N-terminus of a full-length human IgG1 antibody against an irrelevant target (anti-FITC or … (peptide, part only; not given: carrier IgG1 antibody chains, part only)
chain, part: GCPRPRGDNPPLTCSQDSDCLAGCVCGPNGFCG
modifications: cysteine pairing not given here; also: genetic fusion to N-terminus of full-length human IgG1 antibody, Alexa Fluor 488 label, site not given here
Work on B1 yielded a Kd [4] of 2.3 nM.
